According to patent US10959984B2, “Methods for treating cancer with RORγ inhibitors” (THE REGENTS OF THE UNIVERSITY OF CALIFORNIA, priority 2015, dated 2021):
“Also recorded” adds a separate entry of the source.

What was measured:
AR-negative PCa cells = experiment: Prostate cancer cell growth and survival, AR-negative cells; format: cell-based, human
Method: (§1) For cell viability, cells were seeded in 96-well plates at 1500-2500 cells per well (optimum density for growth) in a total volume of 100 μl media. Serially diluted compounds in […] of media were added to the cells 12 hours later. After 4 days of incubation, Cell-Titer GLO reagents (Promega) were added and luminescence was measured on GLOMAX microplate luminometer (Promega), according to the manufacturer's instructions. All experimental points were set up as sextuplicate as biological replication and the entire experiments were repeated three times. The data are presented as percentage of viable cells with vehicle treated cells set as 100. The estimated in vitro IC50 values were calculated using GraphPad Prism 6 software.
(§2) For apoptosis, Terminal deoxynucleotidyl transferase-mediated dUTP nick end labeling (TUNEL) was performed by using in situ cell death detection kit (Roche) as previously described^56. The results are expressed as a percentage of apoptotic cell number/total cell number. Caspase-3/7 activity was measured using a luminescent caspase-Glo 3/7 assay kit (Promega Corporation, Madison, USA) following the manufacturer's instructions. For cell growth, cells were seeded in 6-well plates at 2×10^5 per well and treated as indicated. Total viable cell numbers were counted using a Coulter cell counter. For colony formation, 800 cells were seeded in a well of 6-well plates and cultured for 14 days with the medium changed every 3 days. When the cell clone grew visible, the medium was removed and the cells were fixed with […] formalin for 10 minutes. Then the plates were washed with PBS for two times and the cell colonies were stained with 0.2% crystal violet (in 10% formalin) for 15 minutes. The numbers of cell colonies were counted after washed 5 times by PBS. The above assays were performed in triplicates and the entire experiments were repeated three times.

AR-positive PCa cells = experiment: Prostate cancer cell growth and survival (cell viability / cell growth); format: cell-based, human; conditions: for inhibition of AR-positive PCa cell growth and survival: different cell line models; for growth-inhibitory effect in prostate cancer cells: cell viability, 4 d (FIGS. 7B, 7C)
Method: as §1, §2

breast cancer cells = experiment: CellTiter-GLO viability, breast cancer cells; format: cell-based, human; conditions: for growth and survival of breast cancer cells: cells having different major molecular features, 4 days
Method: as §1
(§3) Using a CellTiter-GLO assay, the viability of cells of different cancer types was measured after treatment with different concentrations of RORγ small molecule inhibitors for 4 days.

[1] = test system: OVCAR420, T24, ECC1, HepG2, Hep3B, T98G, SUDHL4, SUDHL6, HCT116 and docetaxel-resistant C4-2B cells; experiment: CellTiter-GLO viability, cells of other cancer types; format: cell-based, human; conditions: ovarian OVCAR420, bladder T24, endometrial ECC1, liver HepG2 and Hep3B, glioblastoma T98G, DLBCL SUDHL4 and SUDHL6, colon HCT116, docetaxel-resistant C4-2B; 4 days
Method: as §1, §3

[2] = test system: TNBC cells including MDA-MB468, MDA-MB231, BT20, SUM149, and HCC1937; experiment: CellTiter-GLO viability, triple-negative breast cancer cells; format: cell-based; conditions: Homo sapiens, 96 h, treated for 4 days
Method: as §1, §3

MCF-7-TamR cell line = experiment: Growth of tamoxifen-resistant breast cancer cells; format: cell-based, human
Method: as §3

[3] = test system: ER-positive cells, such as MCF-7 and T47D; experiment: CellTiter-GLO viability, ER-positive breast cancer cells; format: cell-based; conditions: Homo sapiens, 96 h; ER-positive cells MCF-7 and T47D, treated for 4 days
Method: as §1, §3

[4] = test system: HER2-positive cells, such as SKBR3 and HCC1954; experiment: CellTiter-GLO viability, HER2-positive breast cancer cells; format: cell-based, human; conditions: SKBR3 and HCC1954, 4 days
Method: as §1, §3

lung cancer cells = experiment: CellTiter-GLO viability, lung cancer cells; format: cell-based, human; conditions: NSCLC cells: KRAS mutant (A427, Calu1, A549, H23, H358), BRAF mutant (H1666), EGFR mutant (HCC827, PC-9), Erlotinib-resistant (A427, H1975); 4 days
Method: as §1, §3

AR = experiment: ARE reporter gene assay (5xARE-tk-luc) in 22Rv1 cells; format: cell-based, human
Method: Transient transfection and reporter gene assays were performed as previously described^49 with the following modifications. ARE reporter gene assays were performed by transfecting 22Rv1 cells with 5×ARE-tk-luc, pcDNA3.1-hAR and pCMV-β-gal for normalization. For transfection with constructs omitted for specific gene expression, corresponding empty vectors were used to ensure equal amount of total DNA used. Briefly, 22Rv1 cells seeded in 96-well plates in hormone-deprived medium supplemented with 10% cds-FBS (Hyclone) were transfected with lipofectamine 2000 (Life technology, Carlsbad, Calif., USA) and the indicated plasmid DNA. Cells were then treated at 12 hours after transfection with 3 nm R1881, indicated concentrations of RORγ antagonists or ENZ for another 24 hours before harvested for β-gal and luciferase assays. For RORE reporter gene assays, 4×AR-RORE-tk-luc was constructed by inserting four copies of the newly identified AR-RORE TTCTGGGTCA (SEQ ID NO: 1) into tk-luciferase reporter vector. AR-RORE mutant form (AR-RORE mut) contains sequences mutated from TTCTGGGTCA (SEQ ID NO: 1) to TTCTGAACGA (SEQ ID NO: 2). […] The luciferase and β-galactosidase were then analyzed with a Luciferase Assay Substrate (Promega) and Luminescent β-galactosidase Detection Kit II (Clontech). […]

AR and AR-V7 = experiment: AR and AR variant expression (immunoblotting, qRT-PCR); format: cell-based, human
Method: Total RNA was isolated from cells in 6-well or 10-cm plates or from xenograft tumors, and the cDNA was prepared, amplified and measured in the presence of SYBR as previously^49. Briefly, the fluorescent values were collected and a melting curve analysis was performed. Fold difference was calculated as described previously^49. The experiments were performed at least three times with data presented as mean values±s.d. Cell lysates were analyzed by immunoblotting with antibodies specifically recognizing RORγ, AR, AR-V7 and the indicated proteins. The PCR primers and all the antibodies used in this study are described in the Tables 3 and 4.

22Rv1 xenografts = experiment: 22Rv1 xenograft tumor growth; format: in vivo, mice
Method: Four-week-old male SCID C.B17 mice (for C4-2B and VCaP) or BALB/c nu/nu athymic mice (for 22Rv11 and PC-3) were purchased from Harlan Inc. For establishing tumors, 2×10^6 cells were suspended in total of 100 μL PBS/Matrigel (1:1) and implanted subcutaneously into the dorsal flank on both sides of the mice. Animal group size of six or more was estimated to have a high statistic power, based on power calculation (http://www.biomath.info/power/) and previous studies involving the same xenograft models^34,68. When the tumor volume was approximately 80 mm^3, the mice were randomized and then treated intraperitoneally (i.p.) with 100 μl of either vehicle or RORγ antagonists SR2211, XY011/8k (in a formulation of 15% Cremophor EL, Calbiochem, 82.5% PBS, and 2.5% DMSO) for five times per week. Tumor growth was monitored by calipers with volume calculated using the equation: (π/6 (length×width2)). Body weight during the course of the study was also monitored. At the end of the studies mice were killed and tumors were dissected and weighed. Additionally, prostate, seminal vesicle, testis, kidney, heart, lung, liver, epididymal fat pad and spleen were harvested and weighed. To assess the effect of combining RORγ antagonists and ENZ on the growth of castrated-resistant VCaP xenografts (CRPC-VCaP), first, SCID C.B17 mice were injected with VCaP cells as above to establish the tumors. Then, mice bearing tumors of approximately 180 mm^3 were surgically castrated. They were then observed for tumor regression. Once tumors grew back to the pre-castration size, mice were randomized and treated with vehicle, 5 mg kg^−1 SR2211, 10 mg […] ENZ or a combination of 5 mg kg^−1 SR2211 and 10 mg kg^−1 ENZ. ENZ was given by oral gavage as previously described^68 and SR2211 was administered i.p as above. Mice were excluded from the study if bearing no tumor or tumor with size twice larger or smaller than the mean, at the time of randomization.

CCN1C(=O)c2cccc3c(S(=O)(=O)Nc4ccc5ccncc5c4)ccc1c23 [6f, 1-Ethyl-N-(isoquinolin-7′-yl)-2-oxo-1,2-dihydrobenzo[cd]indole-6-sulfonamide]
inhibition of cell growth and survival in AR-negative cells (AR-negative PCa cells): not in the AR-negative cells | inhibition of AR-positive PCa cell growth and survival (AR-positive PCa cells): potent inhibition of AR-positive PCa cell growth and survival

CCN1C(=O)c2cccc3c(S(=O)(=O)Nc4ccc(/N=N/c5ccccc5)cc4)ccc1c23 [7k, (E)-1-ethyl-2-oxo-N-(4′-(phenyldiazenyl)phenyl)-1,2-dihydrobenzo[cd]indole-6-sulfonamide]
inhibition of cell growth and survival in AR-negative cells (AR-negative PCa cells): not in the AR-negative cells | inhibition of AR-positive PCa cell growth and survival (AR-positive PCa cells): potent inhibition of AR-positive PCa cell growth and survival

CC(=O)N1CCN(c2ccc(CN3[C@@H](C)CC[C@H](c4ccccc4)S3(=O)=O)c(F)c2)CC1 [GNE3500]
growth and survival of different breast cancer cells (breast cancer cells; HER2-positive HCC1954, TNBC MDA-MB468 and MDA-MB231, radiation-resistant MCF-7-C6): significant inhibition

NS(=O)(=O)c1ccc(CC(=O)Nc2cc(Cl)c(-c3ccccc3OC(F)(F)F)c(Cl)c2)cc1 [GSK9b, N-(2,6-dichloro-2′-trifluoromethoxy)-[1,1′-biphenyl]-4-yl-2-(4-sulfamoylphenyl)acetamide]
growth and survival of cancer cells of other types [1]: significant inhibition of the growth and survival | growth and survival of breast cancer cells (breast cancer cells): strongly inhibited the growth and survival of breast cancer cells; also recorded: slightly less effective than GSK805

CCS(=O)(=O)c1ccc(CC(=O)Nc2cc(Cl)c(-c3ccccc3OC(F)(F)F)c(Cl)c2)cc1 [GSK805, N-(3,5-Dichloro-4-(2-(trifluoromethoxy)phenyl)phenyl)-2-(4-ethylsulfonylphenyl)acetamide]
IC50 [2]: 1 to 10 µM | sensitization of tamoxifen-resistant breast cancer cells to tamoxifen (MCF-7-TamR cell line; MCF-7 TamR cells, in combination with tamoxifen): able to sensitize tamoxifen-resistant breast cancer cells to tamoxifen; also recorded: sensitized MCF-7 TamR cells to tamoxifen | IC50 [3]: > 10 µM | inhibition of HER2-positive cells [4]: relatively strong inhibition | growth and survival of lung cancer cells (lung cancer cells): strongly inhibited the growth and survival of lung cancer cells | growth and survival of cancer cells of other types [1]: significant inhibition of the growth and survival | growth and survival of breast cancer cells (breast cancer cells): strongly inhibited the growth and survival of breast cancer cells

C[C@]1(O)CC[C@H]2[C@@H]3CCC4=CC(=O)CCC4=C3C=C[C@@]21C [R1881]
response of multimerized ARE-driven reporter (AR): activated

CC(=O)N1CCN(Cc2ccc(-c3ccc(C(O)(C(F)(F)F)C(F)(F)F)cc3)cc2)CC1.Cl [SR1555, 1-(4-((4′-(1,1,1,3,3,3-hexafluoro-2-hydroxypropan-2-yl)-[1,1′-biphenyl]-4-yl)methyl)piperazin-1-yl)ethanone, monohydrochloride]
inhibition of cell growth and survival in AR-negative cells (AR-negative PCa cells): not in the AR-negative cells | growth-inhibitory effect in prostate cancer cells (AR-positive PCa cells): significant inhibitory effects with slightly lower potencies | inhibition of AR-positive PCa cell growth and survival (AR-positive PCa cells): potent inhibition of AR-positive PCa cell growth and survival

CCN1C(=O)c2cccc3c(S(=O)(=O)Nc4ccc(OC)c(OC)c4)ccc1c23 [XY011, N-(3′,4′-dimethoxyphenyl)-1-ethyl-2-oxo-1,2-dihydrobenzo[cd]indole-6-sulfonamide]
expression of AR and AR-V7 (AR and AR-V7; C4-2B and VCaP cells, 72 h): potently inhibited the expression of AR and AR-V7 in a dose-dependent manner | inhibition of cell growth and survival in AR-negative cells (AR-negative PCa cells): not in the AR-negative cells | inhibition of AR-positive PCa cell growth and survival (AR-positive PCa cells): potent inhibition of AR-positive PCa cell growth and survival | tumor growth inhibition (22Rv1 xenografts; XY011 20 mg/kg, i.p., 5 times a week (FIG. 23B)): Strong tumor growth inhibition | growth of xenograft tumors (22Rv1 xenografts; nude mice, SR2211 5 mg/kg i.p., 8k/E11 10 and 20 mg/kg i.p., five times per week (FIG. 3A)): strongly inhibited growth of xenograft tumors

C[C@]12CC[C@H](O)C[C@H]1CC[C@@H]1[C@@H]2CC[C@]2(C)[C@@H](c3ccc(=O)oc3)CC[C@]12O [bufalin]
AR expression (AR and AR-V7; C4-2B cells treated with bufalin): dose-dependent inhibition of AR expression

CC/C(=C(\c1ccccc1)c1ccc(OCCN(C)C)cc1)c1ccccc1 [tamoxifen]
growth inhibitory effect of tamoxifen alone (MCF-7-TamR cell line; MCF-7-TamR, 1 μM of 4(OH)-tamoxifen): did not show any inhibitory effect | growth inhibitory effect of tamoxifen in combination with RORγ inhibitors (MCF-7-TamR cell line; tamoxifen-resistant breast cancer cells, combined with SR2211 or GSK805): synergistic growth inhibitory effect

SR3335
growth-inhibitory effect in prostate cancer cells (AR-positive PCa cells): did not display any significant effect | inhibition of AR-positive PCa cell growth and survival (AR-positive PCa cells): did not show any significant growth inhibition
